Results as given in ChEMBL document CHEMBL1817609, “SAR studies of 4-pyridyl heterocyclic anilines that selectively induce autophagic cell death in von Hippel-Lindau-deficient renal cell carcinoma cells” (Bioorg Med Chem, 2011).

Experiments:
[1] = Growth inhibition of human RCC4 cells after 4 days by XTT assay; type: functional, cell-based; conditions: RCC4, 96 h
[2] = Selectivity ratio IC50 for human RCC4/VHL cells to IC50 for human RCC4 cells; type: functional
[3] = Growth inhibition of human RCC4/VHL cells after 4 days by XTT assay; type: functional, cell-based; conditions: 96 h

Cc1cccc(N(C)c2nc(-c3ccncc3)cs2)c1
IC50 ([1]; read-out: pIC50 (converted)): 28.2 µM

Cc1cccc(Nc2nc(-c3ccncc3C)cs2)c1
IC50 ([1]; read-out: pIC50 (converted)): 5.25 µM

COc1ccc(Nc2nc(-c3ccncc3)cs2)cc1
IC50 ([1]; read-out: pIC50 (converted)): 14.1 µM

CC(=O)c1ccc(-c2cc(-c3csc(Nc4cccc(C)c4)n3)ccn2)cc1
Ratio IC50 [2]: 0.9
IC50 [3]: 33.4 µM
IC50 ([1]; read-out: IC50): 38.8 µM
IC50 ([1]; read-out: pIC50 (converted)): 38.9 µM

Cc1cccc(Nc2nc(-c3ccnc(Br)c3)cs2)c1
IC50 ([1]; read-out: pIC50 (converted)): 2.04 µM

OCc1sc(Nc2ccccc2)nc1-c1ccncc1
IC50 ([1]; read-out: pIC50 (converted)): 30.2 µM

Cc1cccc(Nc2cccc(-c3ccncc3)n2)c1
Ratio IC50 [2]: >5.4
IC50 [3]: > 40 µM
IC50 ([1]; read-out: IC50): 7.4 µM
IC50 ([1]; read-out: pIC50 (converted)): 7.41 µM

Cc1cccc(Nc2nc(-c3ccncc3)c(CCCN3CCOCC3)s2)c1
IC50 ([1]; read-out: pIC50 (converted)): 5.89 µM

c1ccc(Nc2nc(-c3ccncc3)cs2)cc1
Ratio IC50 [2]: >10
IC50 [3]: > 70 µM
IC50 ([1]; read-out: IC50): 7 µM
IC50 ([1]; read-out: pIC50 (converted)): 7.08 µM

Cc1cccc(Nc2nc(-c3ccncc3NCCN3CCOCC3)cs2)c1
Ratio IC50 [2]: 1.4
IC50 [3]: 27.9 µM
IC50 ([1]; read-out: IC50): 19.5 µM
IC50 ([1]; read-out: pIC50 (converted)): 19.5 µM

Cc1sc(Nc2ccc3c(c2)CCC3)nc1-c1ccncc1
IC50 ([1]; read-out: pIC50 (converted)): 12 µM

Cc1cccc(Nc2nc(-c3ccncc3-c3ccc(C(F)(F)F)cc3)cs2)c1
Ratio IC50 [2]: 1.8
IC50 [3]: 22.6 µM
IC50 ([1]; read-out: IC50): 12.8 µM
IC50 ([1]; read-out: pIC50 (converted)): 12.9 µM

Cc1cccc(Nc2nc(-c3ccncc3)co2)c1
IC50 [3]: > 40 µM
IC50 ([1]; read-out: IC50): > 40 µM
IC50 ([1]; read-out: pIC50 (converted)): 40.7 µM

Cc1cccc(Nc2nc(-c3ccnc(C)c3)cs2)c1
IC50 ([1]; read-out: pIC50 (converted)): 28.8 µM

Cc1cccc(Nc2nc(-c3ccnc(-c4ccncc4)c3)cs2)c1
Ratio IC50 [2]: 1.3
IC50 [3]: 38 µM
IC50 ([1]; read-out: IC50): 28.9 µM
IC50 ([1]; read-out: pIC50 (converted)): 29.5 µM

Oc1ccccc1Nc1nc(-c2ccncc2)cs1
IC50 ([1]; read-out: pIC50 (converted)): 12.9 µM

FC(F)(F)c1ccccc1Nc1nc(-c2ccncc2)cs1
IC50 ([1]; read-out: pIC50 (converted)): 40.7 µM

Cc1cccc(Nc2nc(-c3cnn4ccccc34)cs2)c1
Ratio IC50 [2]: <0.4
IC50 [3]: 15.3 µM
IC50 ([1]; read-out: IC50): > 40 µM
IC50 ([1]; read-out: pIC50 (converted)): 40.7 µM

Clc1ccccc1Nc1nc(-c2ccncc2)cs1
IC50 ([1]; read-out: pIC50 (converted)): 28.2 µM

Cc1cccc(Nc2nc(-c3ccncc3-c3ccc(S(C)(=O)=O)cc3)cs2)c1
Ratio IC50 [2]: 8.4
IC50 [3]: 13.4 µM
IC50 ([1]; read-out: IC50): 1.6 µM
IC50 ([1]; read-out: pIC50 (converted)): 1.62 µM

OCCc1ccc(Nc2nc(-c3ccncc3)cs2)cc1
IC50 ([1]; read-out: pIC50 (converted)): 5.01 µM

Fc1cccc(Nc2nc(-c3ccncc3)cs2)c1
IC50 ([1]; read-out: pIC50 (converted)): 40.7 µM

Cc1cccc(Nc2nc(-c3ccnc(-c4cccc5[nH]ccc45)c3)cs2)c1
Ratio IC50 [2]: 1.5
IC50 [3]: 4.5 µM
IC50 ([1]; read-out: IC50): 3.1 µM
IC50 ([1]; read-out: pIC50 (converted)): 3.16 µM

Cc1cccc(Nc2nc(-c3ccncc3)c[nH]2)c1
IC50 [3]: > 40 µM
IC50 ([1]; read-out: IC50): > 40 µM
IC50 ([1]; read-out: pIC50 (converted)): 40.7 µM

Cc1ccc(Nc2nc(-c3ccncc3)cs2)cc1
IC50 ([1]; read-out: pIC50 (converted)): 2.51 µM

Cc1cccc(Nc2nc(-c3ccncc3-c3ccc(C(=O)NCCCN(C)C)cc3)cs2)c1
Ratio IC50 [2]: 1
IC50 [3]: 3.9 µM
IC50 ([1]; read-out: IC50): 4 µM
IC50 ([1]; read-out: pIC50 (converted)): 4.07 µM

Cc1cccc(Nc2nc(-c3ccncc3-c3ccc(C(N)=O)cc3)cs2)c1
IC50 [3]: 1.6 µM
IC50 ([1]; read-out: IC50): 4.1 µM
IC50 ([1]; read-out: pIC50 (converted)): 4.17 µM

Cc1cccc(Nc2nc(-c3cc(Cl)nc(Cl)c3)cs2)c1
IC50 ([1]; read-out: pIC50 (converted)): 15.1 µM

COc1ccccc1Nc1nc(-c2ccncc2)cs1
IC50 ([1]; read-out: pIC50 (converted)): 33.9 µM

Cc1cccc(Nc2nccc(-c3ccncc3)n2)c1
Ratio IC50 [2]: 1.3
IC50 [3]: 8.6 µM
IC50 ([1]; read-out: IC50): 6.5 µM
IC50 ([1]; read-out: pIC50 (converted)): 6.61 µM

Cc1cccc(Nc2nc(-c3ccncc3Br)cs2)c1
IC50 ([1]; read-out: pIC50 (converted)): 3.98 µM

Cc1cccc(Nc2nc(-c3ccnc4ccccc34)cs2)c1
Ratio IC50 [2]: 1.6
IC50 [3]: 20 µM
IC50 ([1]; read-out: IC50): 12.3 µM
IC50 ([1]; read-out: pIC50 (converted)): 12.3 µM

CC(C)c1cccc(Nc2nc(-c3ccncc3)cs2)c1
IC50 ([1]; read-out: pIC50 (converted)): 17.4 µM

Cc1cccc(Nc2nc(-c3ccncc3)c(C(=O)N(C)C)s2)c1
IC50 ([1]; read-out: pIC50 (converted)): 16.2 µM

CC(C)(C)c1cccc(Nc2nc(-c3ccncc3)cs2)c1
IC50 ([1]; read-out: pIC50 (converted)): 60.3 µM

Cc1ccc(Nc2nc(-c3ccncc3)cs2)cc1C
IC50 ([1]; read-out: pIC50 (converted)): 6.61 µM

COc1ccc(Nc2nc(-c3ccncc3)cs2)cc1OC
IC50 ([1]; read-out: pIC50 (converted)): 24.5 µM

Cc1cccc(Nc2nc(-c3ccnc(CCCO)c3)cs2)c1
IC50 ([1]; read-out: pIC50 (converted)): 5.25 µM

Cc1cccc(Nc2nc(-c3ccncc3)c(CN(C)C)s2)c1
IC50 ([1]; read-out: pIC50 (converted)): 16.2 µM

CCc1cnccc1-c1csc(Nc2cccc(C)c2)n1
IC50 ([1]; read-out: pIC50 (converted)): 6.31 µM

Brc1cccc(Nc2nc(-c3ccncc3)cs2)c1
IC50 ([1]; read-out: pIC50 (converted)): 40.7 µM

COC(=O)C=CC(=O)c1sc(Nc2cccc(C)c2)nc1-c1ccncc1
IC50 ([1]; read-out: pIC50 (converted)): 2.51 µM

Cc1cccc(Nc2nnc(-c3ccncc3)o2)c1
IC50 [3]: > 40 µM
IC50 ([1]; read-out: IC50): > 40 µM
IC50 ([1]; read-out: pIC50 (converted)): 40.7 µM

Cc1cccc(Nc2nc(-c3c(C)nc4ccccn34)cs2)c1
Ratio IC50 [2]: 3.1
IC50 [3]: 29.8 µM
IC50 ([1]; read-out: IC50): 9.5 µM
IC50 ([1]; read-out: pIC50 (converted)): 9.55 µM

Cc1cccc(Nc2nc(-c3ccncc3Cl)cs2)c1
IC50 ([1]; read-out: pIC50 (converted)): 2.95 µM

O=[N+]([O-])c1ccccc1Nc1nc(-c2ccncc2)cs1
IC50 ([1]; read-out: pIC50 (converted)): 40.7 µM

Cc1cccc(Nc2nc(-c3ccnc(Cl)c3)cs2)c1
IC50 ([1]; read-out: pIC50 (converted)): 2.24 µM
